Assays:
[1] = Tissue distribution study (dorsal root ganglia) in SD rats; format: in vivo; conditions: male, rat, oral administration 10 mg/kg
Protocol: Experimental Example 5: Tissue distribution study of compounds in SD rats
Experimental animals: SD rats, male, 6-8 weeks old.
(§1) Compound preparation: 5% (final preparation volume) of DMSO was added to dissolve the test compound, and then 10% (final preparation volume) of Cremophor EL and 85% Saline were sequentially added.
Experimental design: The test compounds were administered to SD rats as a single dose via oral administration (10 mg/kg; n = 3, 3 time points). Blood samples were collected at 0.5 h, 2 h, and 6 h after oral administration, followed by sacrifice of the animals. Dorsal root ganglia were collected, rinsed with ice-cold normal saline to remove residual blood, blotted dry with absorbent paper, and stored at -70 °C for analysis.
Sample test: The concentrations of the designated compound drugs in plasma and tissues were determined by the LC-MS/MS method.

incision pain model = assay: Incision pain model in ICR mice, Von Frey test; format: in vivo; conditions: Mean + SEM, n = 10; for PWT 50% value (g) Post-surgery, Preadministration: baseline before administration; for PWT 50% value (g) Pre-surgery: baseline before surgery; for PWT 50% value (g) 0.5 h: 0.5 h after administration; for PWT 50% value (g) 2 h: 2 h after administration; for PWT 50% value (g) 4 h: 4 h after administration
Protocol: Experimental Example 6: Pharmacodynamic effect study of compounds in incision pain model in ICR mice Experimental animals: ICR mice, male, 28-35 g.
as §1
A plantar incision pain model was established in mice via surgery before the administration and test. Mice were placed in an anesthesia induction chamber and given 3%-4% isoflurane for anesthesia induction. After the anesthesia induction, a breathing mask was applied, and the isoflurane concentration was adjusted to 1%-2% to prevent the mice from suffering pain during the surgery. Each mouse was placed in a supine position, and the surgical site was disinfected with alcohol and iodophor. Under sterile conditions, a 0.5 cm longitudinal incision was made on the left hind paw surface, 0.2 cm away from the heel, extending toward the toes. The skin and fascia were incised; the plantar muscle was separated, slightly lifted, and longitudinally incised. The skin was then sutured with 5-0 sutures and disinfected.
(§2) 2. Administration and test
The Von Frey test was performed once before the surgery. On the second day after animal modeling, the test was repeated, and animals meeting the baseline requirements were selected for enrollment. The animals were randomly grouped based on the 50% PWT values, with 10 animals per group. Administration was performed under a double-blind test protocol. The 50% PWT of the animals was measured separately before administration (baseline) and at 0.5 h, 2 h, and 4 h after administration, and a single dose was administered. The model control group was given normal saline, while the compound groups were given the compounds according to the administration doses in the table below.

[2] = Tissue distribution study (dorsal root ganglia) in ICR mice; format: in vivo; conditions: male, mouse, oral administration 20 mg/kg
formalin pain model = assay: Rat formalin pain model; format: in vivo, SD rats; conditions: for Number of pain responses 0 min / Number of pain responses 10 min / Number of pain responses 15 min / Number of pain responses 30 min / Number of pain responses 40 min / Number of pain responses 50 min / Number of pain responses 60 min: SD rats, Mean + SD, n = 10
Protocol: Experimental Example 10: Pharmacodynamic effect study of compounds in rat formalin pain model
Experimental animals: SD rats, male, 180-200 g.
Compound preparation: 5% (final preparation volume) of DMSO was added to dissolve the test compound, and then 10% (final preparation volume) of Cremophor EL and 85% Saline were sequentially added; an appropriate amount of Etoricoxib was weighed, 5% (final preparation volume) of DMSO was added to dissolve the test compound, and then 5% (final preparation volume) of HS-15 and 90% Saline were sequentially added; the tramadol injection was diluted with normal saline to the desired concentration.
Each group consisted of 10 animals, and 50 µL of a 5% formalin solution was injected using a microsyringe into the right plantar region.
as §2
Based on different pharmacokinetic properties of the drugs, the administration was performed at 0 min, 60 min, and 120 min before modeling. After injection of the formalin, the number of pain responses in the rats was observed. […] Spontaneous pain responses were observed once every 5 min, and the number of pain responses in the rats within 1 min was counted, with a total observation duration of 60 min. Inhibition rate = (number of pain responses in control group - number of pain responses in administration group)/number of pain responses in control group × 100%.
Table 12. Administration information of compounds of the present disclosure in rat formalin model

[3] = 50 mg/kg p.o. 120 min before 5% formalin
[4] = 125 mg/kg p.o. 120 min before 5% formalin

## COc1c(C2CC(C)(C(F)(F)F)SC2C(=O)Nc2ccnc(C(N)=O)c2)ccc(F)c1F (single isomer, unassigned) [Compound 139-A, 4-(3-(3,4-difluoro-2-methoxyphenyl)-5-methyl-5-(trifluoromethyl)tetrahydrothiophene-2-carboxamido)picolinamide]
[1]; Time 0.5 h
  concentration at 0.5 h: 1070 ng/g
[1]; Time 2 h
  concentration at 2 h: 973 ng/g
[1]; Time 6 h
  concentration at 6 h: 549 ng/g
Incision pain model; 50 mg/kg group
  PWT 50% value (g) Post-surgery, Preadministration: 0.22 ± 0.03 g
  PWT 50% value (g) Pre-surgery: 1.39 ± 0.31 g
Incision pain model; 50 mg/kg single dose
  PWT 50% value (g) 0.5 h: 0.74 ± 0.3 g
  PWT 50% value (g) 2 h: 1.05 ± 0.38 g
  PWT 50% value (g) 4 h: 0.74 ± 0.29 g
Incision pain model; 125 mg/kg group
  PWT 50% value (g) Post-surgery, Preadministration: 0.22 ± 0.02 g
  PWT 50% value (g) Pre-surgery: 1.25 ± 0.31 g
Incision pain model; 125 mg/kg single dose
  PWT 50% value (g) 0.5 h: 0.82 ± 0.33 g
  PWT 50% value (g) 2 h: 1.09 ± 0.32 g
  PWT 50% value (g) 4 h: 0.87 ± 0.16 g
  PWT 50% value (g) AUC0-8h: 6.08 ± 1.2 g·h
[2]; Time 0.25 h
  concentration at 0.25 h: 1920 ng/g
[2]; Time 2 h
  concentration at 2 h: 9380 ng/g
[2]; Time 12 h
  concentration at 12 h: 2600 ng/g
Formalin pain model; [3]
  Number of pain responses 0 min: 35.6±6.7
  Number of pain responses 10 min: 1.7±2.5
  Number of pain responses 15 min: 6.8±3.9
  Number of pain responses 30 min: 15.1±4.4
  Number of pain responses 40 min: 12.7±5.9
  Number of pain responses 50 min: 6.1±5.2
  Number of pain responses 60 min: 2.7±2.6
Formalin pain model; [4]
  Number of pain responses 0 min: 25.5±13.6
  Number of pain responses 10 min: 1.1±1.1
  Number of pain responses 15 min: 4.3±2.7
  Number of pain responses 30 min: 11.7±6.3
  Number of pain responses 40 min: 4.8±3.9
  Number of pain responses 50 min: 1.8±1.8
  Number of pain responses 60 min: 1.8±1.2
Formalin pain model; rat formalin pain model
  dose-effect relationship: relatively good dose-effect relationship
Formalin pain model; rat formalin pain model, first phase immediately after injection, second phase about 15-20 min after
  analgesic activity in the first and second phases: significant analgesic activity in both the first and second phases

Reference: EP4813993A1, “COMPOUND, PREPARATION METHOD THEREFOR, AND USE THEREOF” (Sichuan Kelun Pharmaceutical Research Institute Co., Ltd., priority 2023, dated 2025)
